{
  "source": "patent US7875270B2",
  "about": "“Treatment solution and method for preventing posterior capsular opacification by selectively inducing detachment and/or death of lens epithelial cells” (Abbott Medical Optics Inc., priority 2002, dated 2011)",
  "key": {"[1]": {"system": "human retinal-pigmented epithelial cells (RPECs)", "test": "Confluent RPEC monolayers exposed to solutions; MTT cell viability", "assay_type": "cell-based", "details": "28 μM, 112 μM and 224 μM bumetanide, ≦200 mM NaCl, 3 μl of 5N NaOH", "procedure": "(§1) As described below, the confluent monolayers of LECs, CEDCs, and RPECs grown in 96-well flat-bottom plates are exposed to varying concentrations of NaCl (an osmolyte) solution. Two hundred μl of NaCl solution (prepared as described below) are added to each well at concentrations of 137 mM, 170 mM, 340 mM, 680 mM, 1360 mM and 2000 mM NaCl, respectively. The solutions have a pH of 8.0±0.4. The concentrations of NaCl correspond to final osmolarities of about 285 to 4000 mOsm/L, respectively.\n(§2) The primary and first passages of human lens epithelial cells, human corneal endothelial cells, and human retinal-pigmented epithelial cells are cultured. The LECs, the CEDCs, and the RPECs are isolated from post-mortem eyes by using standard techniques of cell isolation and enzyme digestion. See Uebersax E D, Grindstaff R D and Defoe D M Exp Eye Res. 2000 March; 70(3): 381-90; Wagner L M, Saleh S M, Boyle D J, and Takemoto D J. Mol Vis. 2002 Mar. 14; 8: 59-66; Cammarata P R, Schafer G, Chen S W, Guo Z, and Reeves R E. Invest Ophthalmol Vis Sci. 2002 February; 43(2): 425-33; Rakic J M, Galand A, and Vrensen G F. Exp Eye Res. 2000 November; 71(5): 489-94. LECs and CEDCs are cultured in Eagle's minimum essential medium (MEM). RPECs are cultured in Ham's F10 medium, supplemented with 2 mM glutamine, 25 mmol/L Hepes, pH 7.4, 10 U/mL penicillin, and 10 μg/mL streptomycin and 15% heat-inactivated foetal cow serum (FCS). The primary cultured LECs, CEDCs, and RPECs are sub-cultured at 10^4 cells/wells in 96-well flat-bottom plates until they reached 90 to 100% confluence. These cells are grown to confluence in an incubator with a humidified atmosphere of 5% CO2 at 37° C. The cells are kept in a confluent state for overnight before assays.\n(§3) After treatment, the treated cells are thoroughly washed, and cultured with fresh media for twelve hours before cell viability is assessed. The capability of these cells to survive at the indicated hypertonic stress levels is assessed by an MTT assay 12-24 hours post-exposure.\n(§4) MTT assay is an assay to assess mitochondria function, performed as described by Mosmann (Mosmann, T. J Immunol Methods. 1983 Dec. 16; 65(1-2): 55-63. The tetrazolium salt 3-(4,5-dimethylthiazol-2-yl)-2,5-diphenyl tetrazolium bromide (MTT; supplied by Sigma Chemical Co.) is dissolved in Phosphate's Balanced Salt (PBS) Solutions at 5 mg/ml and sterilized by passage through a 0.22 μm Millipore filter. MTT stock solution is added to growth media at a ratio of 1 to 10. Cells are incubated with this growth media for three to four hours. In cells that are alive at the time of adding MTT, mitochondrial dehydrogenase cleaves the tetrazolium ring into a dark blue formazan reaction product, which builds up in the cell. MTT-reacted cultures are observed under brightfield microscopy without further processing. Cells in each well are scored as MTT-positive if they are completely filled with reaction product (in the case of unattached cells) or contain many formazan crystals emanating from multiple foci (in the case of attached or spread cells). MTT-reacted cultures are then lysised by dimethyl sulfoxide (DMSO) and read in a Microplate Reader to obtain a measure of cell viability.\nConfluent monolayers of RPECs are prepared as described in Example 1. These cells are exposed for ten minutes to 200 μl/well of the solutions comprising increasing concentrations of NaCl (137 mM, 170 mM, 340 mM, 680 mM, 1360 mM and 2000 mM) at varying pH (8.4±0.5 and 10.6±0.5). The solutions of NaCl are prepared as described in Example 1. The pH of the solutions is adjusted with additions of 1 μl and 5 μl of 5N NaOH as described Example 3.\nConfluent monolayers of LECs and RPECs are prepared as described in Example 1. […]\nConfluent monolayers of LECs, CEDCs and RPECs are prepared as described in Example 1. […]\nTo assess whether there is any side effect of this treatment on other ocular cells, confluent monolayers of LECs, CEDCs and RPECs are prepared as described in Example 1. […]"}, "[2]": {"system": "human corneal endothelial cells (CEDCs)", "test": "Confluent CEDC monolayers exposed to solutions; MTT cell viability", "assay_type": "cell-based", "details": "28 μM, 112 μM and 224 μM bumetanide, ≦200 mM NaCl, 3 μl of 5N NaOH", "procedure": "as §1\nas §2, with “The primary cultured LECs, CEDCs, and RPECs are sub-cultured at 10^4 cells/wells in 96-well flat-bottom plates until they reached 90 to 100% confluence. These cells are grown to confluence in an incubator with a humidified atmosphere of 5% CO2 at 37° C. The cells are kept in a confluent state for overnight before assays.” left out\nas §3\nas §4, with “MTT-reacted cultures are observed under brightfield microscopy without further processing.” left out, “viability. […]” for “viability.”"}},
  "data": [
    {"smiles": "CCCCNc1cc(C(=O)O)cc(S(N)(=O)=O)c1Oc1ccccc1", "note": "[bumetanide]", "values": [
      {"measurement": "RPECs killed or removed", "setting": "[1]", "value": "less than 20%"},
      {"measurement": "CEDCs killed or removed", "setting": "[2]", "value": "< 30", "unit": "%"}
    ]}
  ]
}
